Assays:
Type in all cases: in vivo
[1] = tested on: corn; assay: Test Example 4: effect on crop by soil treatment (symbol c); details: for c: corn, effect grade on crop: 320 g/ha
In short: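 Sterilized diluvial soil, spot sowing, ~1.5 cm soil cover; greenhouse 25–30° C.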

[2] = tested on: Avena fatua; assay: Test Example 5: herbicidal effect by foliage application, plastic box (symbol I); details: 320 g/ha, 3 weeks after application
In short: (§1)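 Post-emergence spray; diluvial soil (sterilized), ~1.5 cm seed cover; greenhouse 25–30° C; 14-day-old plants; water-diluted emulsion at predetermined dose; visual score at 3 wk post-treatment.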

[3] = tested on: Amaranthus retroflexus; assay: Test Example 4: herbicidal effect by soil treatment (symbol N)
In short: (§2)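 Seeds were sown in sterilized diluvial soil, covered with about 1.5 cm of soil, and the soil surface was sprayed with a water-diluted emulsion of the compound at a predetermined rate. Plants grew in a greenhouse at 25° C. to 30° C.; effects were scored visually 3 weeks after application.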

[4] = tested on: Galium spurium; assay: Test Example 4: herbicidal effect by soil treatment (symbol Q)
In short: as §2

[5] = tested on: Echinochloa oryzacola Vasing.; assay: Test Example 1: herbicidal activity, application before weed generation in submerged conditions (symbol A); details: application herbicide amount 320 g/ha
In short: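 In a flooded pot test with alluvial soil, the emulsion-formulated compound was diluted with water to a predetermined amount and applied to the floodwater immediately on the sowing day. Pots were held in a greenhouse at 25–30 °C for 3 weeks before each weed was rated.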

[6] = tested on: Amaranthus retroflexus; assay: Test Example 5: herbicidal effect by foliage application, plastic box (symbol N); details: 320 g/ha, 3 weeks after application
In short: as §1

[7] = tested on: Cyperus difformis; assay: Test Example 3: herbicidal effect by foliage application, Wagner pot (symbol E); details: application herbicide amount 320 g/ha
In short: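 Post-emergence, paddy-type test: seedlings 14 d old in shallow-flooded (0.1–0.5 cm) alluvial soil, 25–30 °C greenhouse. Emulsion diluted to target rate, sprayed on leaves. Read-out: visual effect on each species at 3 weeks, per set criteria.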

[8] = tested on: Scirpus juncoides; assay: Test Example 2: herbicidal activity, application during weed generation in submerged conditions (symbol B); details: Table 23; application herbicide amount 320 g/ha; grade 0-5 by criteria of Test Example 1
In short: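 Steps: fill pots with alluvial soil; add water to 4 cm depth; co-sow the three weeds; grow at 25° C. to 30° C. under glass; at 1–2 leaves, dose the floodwater with diluted emulsion; rate damage visually after 3 weeks.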

[9] = tested on: Stellaria media; assay: Test Example 5: herbicidal effect by foliage application, plastic box (symbol P); details: 320 g/ha, 3 weeks after application
In short: as §1

[10] = tested on: Abutilon theophrasti; assay: Test Example 5: herbicidal effect by foliage application, plastic box (symbol M); details: 320 g/ha, 3 weeks after application
In short: as §1

[11] = tested on: Lolium multiflorum Lam.; assay: Test Example 5: herbicidal effect by foliage application, plastic box (symbol K); details: 320 g/ha, 3 weeks after application
In short: as §1

[12] = tested on: rapeseed; assay: Test Example 4: effect on crop by soil treatment (symbol g); details: for g: rapeseed, effect grade on crop: 320 g/ha
In short: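 Plants grew in a 25° C. to 30° C. greenhouse after spot-sowing of seeds, including beet, rapeseed, wheat and rice, into sterilized diluvial soil under roughly 1.5 cm of cover soil.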

[13] = tested on: Apera spica-venti; assay: Test Example 5: herbicidal effect by foliage application, plastic box (symbol L); details: 320 g/ha, 3 weeks after application
In short: as §1

[14] = tested on: Galium spurium; assay: Test Example 5: herbicidal effect by foliage application, plastic box (symbol Q); details: 320 g/ha, 3 weeks after application
In short: as §1

[15] = tested on: Echinochloa crus-galli var. crus-galli; assay: Test Example 4: herbicidal effect by soil treatment (symbol H)
In short: as §2

[16] = tested on: Veronica persica; assay: Test Example 5: herbicidal effect by foliage application, plastic box (symbol R); details: 320 g/ha, 3 weeks after application
In short: as §1

[17] = application herbicide amount 320 g/ha

| SMILES | c: corn, effect grade on crop [1] | I: Avena fatua, herbicidal effect (criteria 0-5) [2] | N: Amaranthus retroflexus, herbicidal effect grade ([3]; 320 g/ha) | Q: Galium spurium, herbicidal effect grade ([4]; 320 g/ha) | Herbicidal effect grade, A: Echinochloa oryzacola Vasing. [5] | N: Amaranthus retroflexus, herbicidal effect (criteria 0-5) [6] | herbicidal effect on E, grade 0-5 [7] | Herbicidal effect grade, B: Scirpus juncoides [8] | P: Stellaria media, herbicidal effect (criteria 0-5) [9] | M: Abutilon theophrasti, herbicidal effect (criteria 0-5) [10] | K: Lolium multiflorum Lam., herbicidal effect (criteria 0-5) [11] | g: rapeseed, effect grade on crop [12] | L: Apera spica-venti, herbicidal effect (criteria 0-5) [13] | Q: Galium spurium, herbicidal effect (criteria 0-5) [14] | H: Echinochloa crus-galli var. crus-galli, herbicidal effect grade ([15]; 320 g/ha) | R: Veronica persica, herbicidal effect (criteria 0-5) [16] | further results |
| --- | --- | --- | --- | --- | --- | --- | --- | --- | --- | --- | --- | --- | --- | --- | --- | --- | --- |
| COC(=O)c1ccc(CON=C(C)CC2CC(O)=C(c3c(C)cc(C)cc3C)C2=O)cc1 (centres unmarked) [1-118] | 0 (Herbicidal ratio of 5% or lower (almost no effect)) | 3 (Herbicidal ratio of 40% or higher and lower than 70%) | 0 (Herbicidal ratio of 5% or lower (almost no effect)) | 0 (Herbicidal ratio of 5% or lower (almost no effect)) | 5 (Herbicidal ratio of 90% or more (almost completely withered)) | 0 (Herbicidal ratio of 5% or lower (almost no effect)) | 0 (Herbicidal ratio of 5% or lower (almost no effect)) | 0 (Herbicidal ratio of 5% or lower (almost no effect)) | 3 (Herbicidal ratio of 40% or higher and lower than 70%) | 0 (Herbicidal ratio of 5% or lower (almost no effect)) | 5 (Herbicidal ratio of 90% or more (almost completely withered)) | 1 (Herbicidal ratio of 5% or higher and lower than 20%) | 3 (Herbicidal ratio of 40% or higher and lower than 70%) | 3 (Herbicidal ratio of 40% or higher and lower than 70%) | 4 (Herbicidal ratio of 70% or higher and lower than 90%) | 3 (Herbicidal ratio of 40% or higher and lower than 70%) |  |
| CC(CC1CC(O)=C(c2c(C)cc(C)cc2C)C1=O)=NOCC(C)Cl (centres unmarked) [1-121] | 1 (Herbicidal ratio of 5% or higher and lower than 20%) | 5 (Herbicidal ratio of 90% or more (almost completely withered)) | 0 (Herbicidal ratio of 5% or lower (almost no effect)) | 0 (Herbicidal ratio of 5% or lower (almost no effect)) | 5 (Herbicidal ratio of 90% or more (almost completely withered)) | 0 (Herbicidal ratio of 5% or lower (almost no effect)) | 4 (Herbicidal ratio of 70% or higher and lower than 90%) | 4 (Herbicidal ratio of 70% or higher and lower than 90%) | 2 (Herbicidal ratio of 20% or higher and lower than 40%) | 3 (Herbicidal ratio of 40% or higher and lower than 70%) | 5 (Herbicidal ratio of 90% or more (almost completely withered)) | 3 (Herbicidal ratio of 40% or higher and lower than 70%) | 5 (Herbicidal ratio of 90% or more (almost completely withered)) | 0 (Herbicidal ratio of 5% or lower (almost no effect)) | 5 (Herbicidal ratio of 90% or more (almost completely withered)) | 3 (Herbicidal ratio of 40% or higher and lower than 70%) |  |
| CC(CC1CC(O)=C(c2c(C)cc(C)cc2C)C1=O)=NOCC(N)=O (centres unmarked) [1-124] | 0 (Herbicidal ratio of 5% or lower (almost no effect)) | 2 (Herbicidal ratio of 20% or higher and lower than 40%) | 0 (Herbicidal ratio of 5% or lower (almost no effect)) | 0 (Herbicidal ratio of 5% or lower (almost no effect)) | 1 (Herbicidal ratio of 5% or higher and lower than 20%) | 0 (Herbicidal ratio of 5% or lower (almost no effect)) | 0 (Herbicidal ratio of 5% or lower (almost no effect)) | 0 (Herbicidal ratio of 5% or lower (almost no effect)) | 2 (Herbicidal ratio of 20% or higher and lower than 40%) | 0 (Herbicidal ratio of 5% or lower (almost no effect)) | 4 (Herbicidal ratio of 70% or higher and lower than 90%) | 0 (Herbicidal ratio of 5% or lower (almost no effect)) | 3 (Herbicidal ratio of 40% or higher and lower than 70%) | 0 (Herbicidal ratio of 5% or lower (almost no effect)) | 1 (Herbicidal ratio of 5% or higher and lower than 20%) | 0 (Herbicidal ratio of 5% or lower (almost no effect)) |  |
| CC(CC1CC(O)=C(c2c(C)cc(C)cc2C)C1=O)=NOCC[S+](C)[O-] (centres unmarked) [1-125] | 2 (Herbicidal ratio of 20% or higher and lower than 40%) | 5 (Herbicidal ratio of 90% or more (almost completely withered)) | 0 (Herbicidal ratio of 5% or lower (almost no effect)) | 0 (Herbicidal ratio of 5% or lower (almost no effect)) | 3 (Herbicidal ratio of 40% or higher and lower than 70%) | 0 (Herbicidal ratio of 5% or lower (almost no effect)) | 2 (Herbicidal ratio of 20% or higher and lower than 40%) | 0 (Herbicidal ratio of 5% or lower (almost no effect)) | 2 (Herbicidal ratio of 20% or higher and lower than 40%) | 0 (Herbicidal ratio of 5% or lower (almost no effect)) | 5 (Herbicidal ratio of 90% or more (almost completely withered)) | 0 (Herbicidal ratio of 5% or lower (almost no effect)) | 5 (Herbicidal ratio of 90% or more (almost completely withered)) | 3 (Herbicidal ratio of 40% or higher and lower than 70%) | 5 (Herbicidal ratio of 90% or more (almost completely withered)) | 2 (Herbicidal ratio of 20% or higher and lower than 40%) |  |
| COc1cc(Br)cc(C)c1C1=C(O)CC(CC(=O)C2CC2)C1=O (racemic) [14-001] |  |  |  |  |  |  |  | 0 (Herbicidal ratio of 5% or lower (almost no effect)) |  |  |  |  |  |  |  |  | c: corn, effect on crop grade [1, 17]: 5 (Herbicidal ratio of 90% or more (almost completely withered)); I: Avena fatua, herbicidal effect grade [2]: 5 (Herbicidal ratio of 90% or more (almost completely withered)); N: Amaranthus retroflexus, herbicidal effect grade [3, 17]: 0 (Herbicidal ratio of 5% or lower (almost no effect)); Q: Galium spurium, herbicidal effect grade [4, 17]: 0 (Herbicidal ratio of 5% or lower (almost no effect)); A (Echinochloa oryzacola Vasing.) herbicidal effect grade [5]: 4 (Herbicidal ratio of 70% or higher and lower than 90%); N: Amaranthus retroflexus, herbicidal effect grade [6]: 0 (Herbicidal ratio of 5% or lower (almost no effect)); E herbicidal effect grade ([7]; Table 24): 5 (Herbicidal ratio of 90% or more (almost completely withered)); P: Stellaria media, herbicidal effect grade [9]: 0 (Herbicidal ratio of 5% or lower (almost no effect)); M: Abutilon theophrasti, herbicidal effect grade [10]: 4 (Herbicidal ratio of 70% or higher and lower than 90%); K: Lolium multiflorum Lam., herbicidal effect grade [11]: 5 (Herbicidal ratio of 90% or more (almost completely withered)); g: rapeseed, effect on crop grade [12, 17]: 0 (Herbicidal ratio of 5% or lower (almost no effect)); L: Apera spica-venti, herbicidal effect grade [13]: 5 (Herbicidal ratio of 90% or more (almost completely withered)); Q: Galium spurium, herbicidal effect grade [14]: 0 (Herbicidal ratio of 5% or lower (almost no effect)); H: Echinochloa crus-galli var. crus-galli, herbicidal effect grade [15, 17]: 5 (Herbicidal ratio of 90% or more (almost completely withered)); R: Veronica persica, herbicidal effect grade [16]: 2 (Herbicidal ratio of 20% or higher and lower than 40%) |
